Drawing on the Kinase Knowledgebase extract (Sharma et al. 2016), this text covers IC50 for 10 molecules.

Structures are written as SMILES.

Usually IC50 stands for the concentration that gives 50% inhibition. A low value points to higher potency.

The experiment deals with EGFR (human) (UniProt P00533).
Chain of EGFR (human) (P00533 whole entry, looked up): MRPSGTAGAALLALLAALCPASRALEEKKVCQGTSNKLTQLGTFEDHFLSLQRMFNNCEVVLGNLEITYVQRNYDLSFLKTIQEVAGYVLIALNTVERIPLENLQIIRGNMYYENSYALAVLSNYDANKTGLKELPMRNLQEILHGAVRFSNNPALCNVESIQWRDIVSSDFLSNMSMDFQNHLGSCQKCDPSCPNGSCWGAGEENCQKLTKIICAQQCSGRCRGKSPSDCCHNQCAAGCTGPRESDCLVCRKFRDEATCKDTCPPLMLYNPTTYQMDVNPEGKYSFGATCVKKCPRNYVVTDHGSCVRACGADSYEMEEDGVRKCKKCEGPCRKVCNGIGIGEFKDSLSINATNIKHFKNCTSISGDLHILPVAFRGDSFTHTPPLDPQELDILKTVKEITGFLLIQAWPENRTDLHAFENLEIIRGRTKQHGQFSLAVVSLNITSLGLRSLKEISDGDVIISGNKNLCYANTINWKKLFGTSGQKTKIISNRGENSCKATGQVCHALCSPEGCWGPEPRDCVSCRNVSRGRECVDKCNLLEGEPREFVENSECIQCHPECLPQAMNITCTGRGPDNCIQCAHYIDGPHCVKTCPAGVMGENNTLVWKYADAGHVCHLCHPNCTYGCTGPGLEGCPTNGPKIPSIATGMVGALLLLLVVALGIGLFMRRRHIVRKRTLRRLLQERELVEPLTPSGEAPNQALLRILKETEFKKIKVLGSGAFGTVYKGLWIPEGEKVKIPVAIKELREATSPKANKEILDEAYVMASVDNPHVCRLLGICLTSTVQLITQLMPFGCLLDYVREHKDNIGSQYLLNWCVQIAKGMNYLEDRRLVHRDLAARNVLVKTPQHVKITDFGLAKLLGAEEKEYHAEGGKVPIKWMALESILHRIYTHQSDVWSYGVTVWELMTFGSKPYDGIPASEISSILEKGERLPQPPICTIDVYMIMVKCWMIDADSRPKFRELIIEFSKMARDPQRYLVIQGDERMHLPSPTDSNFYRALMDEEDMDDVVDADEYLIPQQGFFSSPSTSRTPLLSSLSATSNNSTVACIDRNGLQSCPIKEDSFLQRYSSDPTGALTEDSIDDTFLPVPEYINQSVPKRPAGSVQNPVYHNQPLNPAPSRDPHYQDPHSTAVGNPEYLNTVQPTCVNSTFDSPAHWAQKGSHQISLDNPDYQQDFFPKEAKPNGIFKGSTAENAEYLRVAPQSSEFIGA
`O=C(Nc1ccccc1)c1ccccc1O` displayed an IC50 greater than 50 µM. `O=C(Nc1ccc(F)cc1)c1cc(Br)cc(Br)c1O` gave an IC50 greater than 50 µM. For `O=C(Nc1ccc(F)cc1F)c1ccccc1O` the value was greater than 50 µM.

Turning to `Cc1ccc(C(=O)Nc2ccc(C(C)C)cc2)c(O)c1`, the IC50 is greater than 50 µM. To `Cc1ccc(C(=O)Nc2ccccc2)c(O)c1` belongs greater than 50 µM; to `O=C(Nc1ccc(F)cc1)c1ccccc1O`, greater than 50 µM. For `O=C(Nc1ccc(Br)cc1)c1ccccc1O` the value was greater than 50 µM; for `Cc1ccc(C(=O)Nc2ccc(F)cc2F)c(O)c1`, greater than 50 µM. `O=C(Nc1ccc(F)cc1)c1cc(I)ccc1O` showed an IC50 greater than 50 µM.

With `Cc1ccc(C(=O)Nc2ccc(Cl)cc2)c(O)c1`, the IC50 was greater than 50 µM.
